Data as given in publication PMC10966990, “Rational design of a cyclohexanone dehydrogenase for enhanced α,β-desaturation and substrate specificity” (Chemical Science, 2024).

Assays:
[1] = biological target: T1, cyclohexanone dehydrogenase (CDH) (Alicycliphilus denitrificans, UniProt F4G7N3, Y176F, form not given); experiment: X-ray crystal structure, […] A; format: binding; conditions: crystals grown with 10 mM cyclohexanone; product modelled in active site next to FAD, further molecules elsewhere
T1 construct: gene Alide2_4318; full gene in pET28a, N-terminal His6 tag, E. coli BL21(DE3); dimer
T1 sequence (F4G7N3 entry or part of it Y176F, form open): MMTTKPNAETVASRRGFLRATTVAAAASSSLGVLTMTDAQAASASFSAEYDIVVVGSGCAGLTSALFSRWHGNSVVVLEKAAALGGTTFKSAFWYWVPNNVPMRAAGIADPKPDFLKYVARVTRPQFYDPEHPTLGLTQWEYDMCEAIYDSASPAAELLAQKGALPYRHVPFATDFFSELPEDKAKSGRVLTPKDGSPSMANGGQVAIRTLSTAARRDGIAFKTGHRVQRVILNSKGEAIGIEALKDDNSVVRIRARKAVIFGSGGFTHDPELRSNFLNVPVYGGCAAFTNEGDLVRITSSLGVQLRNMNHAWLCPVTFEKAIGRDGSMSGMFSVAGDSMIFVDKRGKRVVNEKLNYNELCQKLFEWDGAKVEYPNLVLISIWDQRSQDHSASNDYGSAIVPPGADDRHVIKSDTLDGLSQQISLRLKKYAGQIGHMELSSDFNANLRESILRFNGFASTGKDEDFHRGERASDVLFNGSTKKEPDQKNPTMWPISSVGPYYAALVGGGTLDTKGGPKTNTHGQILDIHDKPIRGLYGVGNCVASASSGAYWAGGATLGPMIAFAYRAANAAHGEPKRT

[2] = biological target: T2, cyclohexanone dehydrogenase (CDH) (Alicycliphilus denitrificans, UniProt F4G7N3); experiment: DCPIP colour change assay; format: biochemical; conditions: 0.25 uM enzyme, 2 mM substrate, 75 uM DCPIP, 20 mM Tris-HCl pH 7.8
T2 construct: gene Alide2_4318; full gene in pET28a, N-terminal His6 tag, E. coli BL21(DE3); dimer
Target sequence in this assay (F4G7N3 entry or part of it W94A, form open): as the sequence (F4G7N3 entry or part of it Y176F, form open) above, with W94A, F176Y counted along it

[3] = biological target: T2, cyclohexanone dehydrogenase (CDH); experiment: X-ray crystal structure, […] A; format: binding; conditions: covalent; C8M of FAD 1.84 A from S-gamma of Cys305
[4] = substrate: CC1(C)CCC(=O)CC1; experiment: purified protein; conditions: pH 7.8
[5] = substrate: CC1CCCC(=O)C1; experiment: DCPIP reduction assay, Michaelis-Menten; format: biochemical, Alicycliphilus denitrificans; conditions: 76 nM enzyme, 60 uM DCPIP, 20 mM Tris-HCl pH 7.8, low aqueous solubility of substrate, caution stated
[6] = substrate: O=C1CCCCC1; experiment: DCPIP reduction assay, Michaelis-Menten; format: biochemical, Alicycliphilus denitrificans; conditions: 76 nM enzyme, 60 uM DCPIP, 20 mM Tris-HCl pH 7.8

Molecule: O=C1C=CCCC1 [compound 10, 2-cyclohexen-1-one]
- X-ray crystal structure, 1.33 A [1]: 2-cyclohexen-1-one was subsequently modelled to produce the Y195F complex structure

Molecule: O=C1CCc2ccccc2O1 [compound 5, dihydrocoumarin]
- DCPIP colour change assay [2]: the W113A variant, but not WT CDH, with dihydrocoumarin

Molecule: CC1CCCC(=O)C1 (stereo not shown) [compound 2, 3-methylcyclohexanone]
- DCPIP colour change assay [2]: The W113A variant showed highest activity on 3-methylcyclohexanone

Molecule: Cc1cc2nc3c(=O)[nH]c(=O)nc-3n(C[C@H](O)[C@H](O)[C@H](O)COP(=O)(O)OP(=O)(O)OC[C@H]3O[C@@H](n4cnc5c(N)ncnc54)[C@H](O)[C@@H]3O)c2cc1C [flavin adenine dinucleotide]
- X-ray crystal structure, 1.86 A [3]: The FAD cofactor was found to occupy a deep positively charged channel

B1: cyclohexanone dehydrogenase (CDH) (Alicycliphilus denitrificans K601) (protein)
chain: MMTTKPNAETVASRRGFLRATTVAAAASSSLGVLTMTDAQAASASFSAEYDIVVVGSGCAGLTSALFSRWHGNSVVVLEKAAALGGTTFKSAFWYWVPNNVPMRAAGIADPKPDFLKYVARVTRPQFYDPEHPTLGLTQWEYDMCEAIYDSASPAAELLAQKGALPYRHVPFATDYFSELPEDKAKSGRVLTPKDGSPSMANGGQVAIRTLSTAARRDGIAFKTGHRVQRVILNSKGEAIGIEALKDDNSVVRIRARKAVIFGSGGFTHDPELRSNFLNVPVYGGCAAFTNEGDLVRITSSLGVQLRNMNHAWLCPVTFEKAIGRDGSMSGMFSVAGDSMIFVDKRGKRVVNEKLNYNELCQKLFEWDGAKVEYPNLVLISIWDQRSQDHSASNDYGSAIVPPGADDRHVIKSDTLDGLSQQISLRLKKYAGQIGHMELSSDFNANLRESILRFNGFASTGKDEDFHRGERASDVLFNGSTKKEPDQKNPTMWPISSVGPYYAALVGGGTLDTKGGPKTNTHGQILDIHDKPIRGLYGVGNCVASASSGAYWAGGATLGPMIAFAYRAANAAHGEPKRT
notes: full gene in pET28a, N-terminal His6 tag, E. coli BL21(DE3); dimer
- Km [4]: 25.62 ± 7.68 mM
- Km [5]: 9.31 ± 1.99 mM
- Km [6]: 0.37 ± 0.04 mM
